Laboratory results reported in patent publication US12595269B2, “Morpholine-like monoamine releasers” (Solvonis Therapeutics Ireland Holdings Limited, priority 2022, dated 2026).

Assay: In vitro intrinsic clearance in rat liver microsomes
Type: in vitro ADME
Conditions: pH 7.4, read-out: Intrinsic clearance (μL/min/mg protein) rat
Method: Methods and Procedure: The general procedure involves incubating test compounds with liver microsomes and subsequently detecting the compounds to determine intrinsic clearance. Clearance was estimated from the rate of depletion k (min−1), the volume of the incubation V (mL), and the amount of microsomal proteins in the incubation M (mg). Intrinsic clearance is defined by the following equation: Clint k*V/M.
Values for CLint are expressed as μL/min/mg protein. Verapamil and dextromethorphan were used as positive controls for CYP3A4 and CYP2D6 isoforms, respectively, to confirm metabolic activity.
Positive control and compounds for testing were dissolved in an appropriate solvent to obtain a 10 mM stock solution, which was diluted to achieve a final working solution, as detailed in the above table. Stock solutions were usually prepared at 10 mM DMSO, whereas working solutions were made by adding 5 μL 10 mM DMSO+995 μL MeOH. However, this concentration can be varied, e.g., when the test item is not soluble in the selected solvent.
Prior to experimentation, frozen liver microsomes were thawed in a water bath at 37° C. and kept on ice until use. The microsomes were then diluted with 50 mM potassium phosphate buffer pH 7.4 to a protein concentration of 0.56 mg/mL. To prepare test and control items in final incubation conditions, 5 μL of test compound and positive control working solutions were added to 445 μL of microsomes incubation mixture at 0.56 mg/mL and 50 μL of regenerating system.
As it relates to the automated incubation procedure for microsomes incubation, the following procedure was followed: • 1. 150 μL of quenching solution (ACN containing an appropriate Internal Standard, i.e. Rolipram and Diclofenac for positive and negative ion mode, respectively) was manually dispensed or dispensed by using the Hamilton system in each well of 96 deep well 1 mL plates. • 2. 800-1000 μL-aliquots of NADPH regenerating system were pre-warmed at 37° C. for 5 minutes. • 3. 5 μL of 50 μM test items and control were added to 445 μL of the 0.56 mg/mL microsomes solution, and the incubation mixture was pre-warmed in a 96 deep well 2 mL plate (incubation plate) at 37° C. for 5 minutes. • 4. […] Metabolic stability was calculated from the ratio of peak area of the remaining test or control item with internal standard versus time. • 9. […] The integrated peak areas of the test and control items at the selected time points were divided by the respective peak areas of the IS, and the percent of parent remaining was calculated by normalizing the peak area ratio of parent to IS at 0 min. Observed rate constant (kobs) for parent degradation was calculated by determining the slope of the line of the graph of the natural log of percentage parent remaining versus time of incubation. […]
For Clc1ccc([C@]23CN[C@H](CO2)C3)cc1Cl (single isomer, unassigned) [516A], the microsomal CLint at 0.5 µM was 167 µL/min/mg.
With Clc1ccc([C@@]23CN[C@@H](CO2)C3)cc1Cl (single isomer, unassigned) [518A] the microsomal CLint at 0.5 µM was 268 µL/min/mg.
Work on Clc1ccc(C23CNC(CO2)C3)cc1Cl (stereo not shown) [522A, 1-(3,4-dichlorophenyl)-2-oxa-5-azabicyclo[2.2.1]heptane] yielded a microsomal CLint at 0.5 µM of 83 µL/min/mg.
CNC(C)Cc1ccc2c(c1)OCO2 (stereo not shown) [MDMA, reference compound] gave a microsomal CLint at 0.5 µM of 171 µL/min/mg.
